Assay results: patent EP1060742A1, “INTERSTITIAL ADENOSINE LEVEL-ELEVATING AGENTS” (priority 1998, dated 1999)

Columns and labels:
[1] = test system: cardiomyopathic Syrian hamsters (Bio 14.6 strain); assay: Heart failure and myocardiopathy test in cardiomyopathic hamsters, oral dosing for 87 days; assay type: in vivo, hamster; conditions: for AST (GOT) level / LDH level: day 30, 60mg/kg/day
Protocol: (§1) Male aged-matched normal healthy golden hamsters (F1B strain) were used as control animals. These hamsters were purchased from Biobreeders Inc. Throughout the test period, the animals were housed in stainless steel cage in a temperature (23 ± 1C° )controlled room where a daily light-dark cycle was maintained artificially at 12 hours intervals. The animals were fed with commercially available pellet (CE-2, CLEA Japan, Inc.) and provided adde libitum with feed pellets and water. Incidentally, after they were purchased, the animals were acclimated to the above environment at least one week before subjected to experiments.
The test compound was suspended in a 0.5% sodium carboxymethyl cellulose (CMC-Na) solution. This dosing solution was orally administered for 87 days at dosages of 30mg/kg/day and 60mg/kg/day and a dose volume of 20ml/kg.
Captopril was used as a control compound. The compound was similarly suspended in a 0.5% CMC-Na solution and was orally administered for 87 days at a dosage of 60mg/kg/day and a dose volume of 20ml/kg.
A group of animals administered with a 0.5% CMC-Na solution served as a vehicle control group. The solution was administered once daily from Monday through Friday but not on Saturdays and Sundays.
(§2) Body weight was recorded on every Monday and Thursday after the administration of the test compound. […]
Blood samples were collected before administration of the test compound, and 45 and 88 days after administration. The blood samples were collected from venous plexus of eyegrounds under anesthesia by ether. Blood plasma was separated from the samples and plasma norepinephrine (NE) levels were measured using a catecholamine assay system.
Myocardial tissue preparations were prepared 88 days after the administration was started. The animals were sacrificed by exsanguination under anesthesia by ether. Chests were opened and hearts extirpated. Weight of the hearts was measured and the hearts were fixed in a 10% buffered neutral formaldehyde solution. Bases of the hearts were sliced to a 3mm thickness and formed into paraffin slices with respect to the side of the base using ordinary methods. The slices were stained with kossa, hematoxylin/eosin (H&E) and H&E/aniline blue stains. The preparations of the hearts so prepared were measured in area for regions of cardiac fibrosis, mineral deposition, myocardial necrosis, and macrophage infiltration, using an image analyzing system (Mac SCOPE Ver.2.1, Mitsuya Shoji).
(§3) Measurements were expressed in mean ± S.E., and tests for significant differences between the respective groups were performed using Dunnett's multiple comparison test.

[2] = test system: myocardial adenosine level; assay: Effects on myocardial adenosine level in extirpated, Langendorff-perfused rat hearts (HPLC); conditions: 10^-5 M, 15-minute perfusion, compared to vehicle control group (0.04% DMSO)
Protocol: Male Sprange-Dawley rats aged 7 to 8 weeks were used. Hearts were extirpated under anesthesia by pentobarbital (50mg/kg, intra-abdominally injected) and were suspended in a Langendorff's apparatus.
The hearts were then frozen with liquid nitrogen. 10 equivalents of 0.6N perchloric acid were added to the frozen tissue and the tissue was homogenized and neutralized by 1N KOH and was then centrifuged. After centrifugation, the level of adenosine in the supernatant was measured by HPLC.
Propranol was used as a control compound for the test and 0.04% DMSO solution was used as a vehicle control.
as §3

[3] = test system: normal healthy golden hamsters (F1B strain); conditions: hamster, in vivo
Protocol: as §1, with “Male cardiomyopathic Syrian hamsters (Bio 14.6 strain) aged 7 weeks were used. Male” for “Male”, “Incidentally, after they were purchased, the animals were acclimated to the above environment at least one week before subjected to experiments.” left out
as §2
Blood samples were collected before administration of the test compound, and 45 and 88 days after administration. […] Blood plasma was separated from the samples and plasma norepinephrine (NE) levels were measured using a catecholamine assay system.
Myocardial tissue preparations were prepared 88 days after the administration was started. […] Weight of the hearts was measured and the hearts were fixed in a 10% buffered neutral formaldehyde solution. […] The preparations of the hearts so prepared were measured in area for regions of cardiac fibrosis, mineral deposition, myocardial necrosis, and macrophage infiltration, using an image analyzing system (Mac SCOPE Ver.2.1, Mitsuya Shoji). […]

male ICR mice = assay: Toxicity test, subcutaneous administration to mice, observed for one week; assay type: in vivo
[4] = Toxicity test, oral administration to fasted mice, observed for two weeks, LD50 by the Richfield-Wilcockson method; assay type: in vivo; conditions: mouse, in vivo, mice, Richfield-Wilcockson method
Protocol: (§4) LD50 was determined using the Richfield-Wilcockson method.

mice = assay: as above; assay type: in vivo; conditions: 0.025N hydrochloric acid-saline solution, after 16-hour fasting, observed for two weeks
Protocol: as §4

[5] = test system: cardiomyopathic Syrian hamsters (Bio 14.6 strain); assay: Heart failure and myocardiopathy test in cardiomyopathic hamsters, oral dosing for 87 days; assay type: in vivo, hamster; conditions: Bio 14.6 hamsters, 30, 60 and 88 days, all tests other than AST (GOT) and LDH on day 30 at 60mg/kg/day
[6] = Bio 14.6 hamsters, 88 days after administration, 60mg/kg/day, compared to vehicle control group
[7] = Bio 14.6 hamsters, day 88, 60mg/kg/day oral
[8] = Bio 14.6 hamsters, day 88, 60mg/kg/day, image analysis
[9] = Bio 14.6 hamsters, day 88, 30mg/kg/day, image analysis

With `C[C@H](CS)C(=O)N1CCC[C@H]1C(=O)O` [captopril, reference compound] the “plasma NE level” value [1, 6] was “The same results were obtained”, the “AST (GOT) level” value ([1]; Bio 14.6 hamsters) was “tendency of decrease” and the LDH level ([1]; Bio 14.6 hamsters) was “tendency of decrease”. The relative heart weight [1, 7] was “The same results were obtained”, the “area of cardiac lesions” value [1, 8] was “significant decrease in area” and the “area of regions of fibrosis” value [1, 8] was “significant decrease in area”. For the same molecule, the “area of regions of macrophage infiltration” value [1, 8] was “significant decrease in area” and the “area of regions of myocardial necrosis” value [1, 8] was “significant decrease in area”.

With `COC(=O)C12C(O)C(C(=O)Cc3ccccn3)=NN1C(c1ccccc1)C=CC2c1ccccc1` (centres unmarked) [compound No.1, 2,5-diphenyl-7-hydroxy-6-methoxycarbonyl-8-(2-pyridyl)acetyl-1,9-diazabicyclo[4.3.0]-nona-3,8-dien] the myocardial adenosine level [2] was “increased three-fold”, the “plasma NE level” value ([1]; 45 days after administration, each dosage, compared to vehicle control groups, strain not specified in the sentence (Fig.4)) was “did not have significant effects” and the “plasma NE level” value [1, 6] was “significantly lower level”. The “plasma NE level” value ([1]; Bio 14.6 hamsters, 88 days after administration, across 30 and 60mg/kg/day) was “decrease in a dose-dependent manner”, the “AST (GOT) level” value ([1]; Bio 14.6 hamsters) was “tendency of decrease” and the LDH level ([1]; Bio 14.6 hamsters) was “tendency of decrease”. The relative heart weight ([1]; Bio 14.6 hamsters, day 88, 30mg/kg/day oral) was “significant suppression of increase”, the “area of cardiac legions (sum of the areas of necrosis, macrophage infiltration and fibrosis)” value [1, 9] was “significant decrease in area” and the “area of regions of fibrosis” value [1, 9] was “significant decrease in area”. For the same molecule, the “area of regions of macrophage infiltration” value [1, 9] was “significant decrease in area”, the “area of regions of myocardial necrosis” value [1, 9] was “significant decrease in area” and the relative heart weight [1, 7] was “significant suppression of increase”. For the same molecule, the “area of regions of macrophage infiltration” value [1, 8] was “significant decrease in area”, the “area of regions of myocardial necrosis” value [1, 8] was “significant decrease in area” and the relative liver weight ([1]; Bio 14.6 hamsters, day 88, oral) was “did not have effects”. The “changes in body weight” value ([1]; Bio 14.6 hamsters, each dosage (30mg/kg/day and 60mg/kg/day), oral) was “did not affect”, the clinical chemistry tests [3] was “no effect” and the “clinical observations related to treatment” value (male ICR mice; mouse, in vivo, sc) was “no clinical observations”. For the same molecule, the mortality (male ICR mice; subcutaneous, 10ml/kg of a 10% aqueous polyethylene glycol 400 solution, observed for one week) was “no mortality”, the LD50 at 336 h [4] was greater than 100 mg/kg and the clinical observations (mice) was “no clinical observations”. The mortality (mice) was “no mortality” and the “clinical chemistry tests (all the other tests)” value [5] was “no effect”.

For `CC(C)NCC(O)COc1cccc2ccccc12` (centres unmarked) [propranol, reference compound], the myocardial adenosine level [2] was “no significant difference”.
